Data on 31 compounds can be found in patent publication US8685970B2, “Quinolines and related analogs as sirtuin modulators” (GlaxoSmithKline, LLC, priority 2008, dated 2014).

The experiment addresses T1, SIRT1 (Homo sapiens, UniProt Q96EB6).
T1 sequence (Q96EB6 1-747): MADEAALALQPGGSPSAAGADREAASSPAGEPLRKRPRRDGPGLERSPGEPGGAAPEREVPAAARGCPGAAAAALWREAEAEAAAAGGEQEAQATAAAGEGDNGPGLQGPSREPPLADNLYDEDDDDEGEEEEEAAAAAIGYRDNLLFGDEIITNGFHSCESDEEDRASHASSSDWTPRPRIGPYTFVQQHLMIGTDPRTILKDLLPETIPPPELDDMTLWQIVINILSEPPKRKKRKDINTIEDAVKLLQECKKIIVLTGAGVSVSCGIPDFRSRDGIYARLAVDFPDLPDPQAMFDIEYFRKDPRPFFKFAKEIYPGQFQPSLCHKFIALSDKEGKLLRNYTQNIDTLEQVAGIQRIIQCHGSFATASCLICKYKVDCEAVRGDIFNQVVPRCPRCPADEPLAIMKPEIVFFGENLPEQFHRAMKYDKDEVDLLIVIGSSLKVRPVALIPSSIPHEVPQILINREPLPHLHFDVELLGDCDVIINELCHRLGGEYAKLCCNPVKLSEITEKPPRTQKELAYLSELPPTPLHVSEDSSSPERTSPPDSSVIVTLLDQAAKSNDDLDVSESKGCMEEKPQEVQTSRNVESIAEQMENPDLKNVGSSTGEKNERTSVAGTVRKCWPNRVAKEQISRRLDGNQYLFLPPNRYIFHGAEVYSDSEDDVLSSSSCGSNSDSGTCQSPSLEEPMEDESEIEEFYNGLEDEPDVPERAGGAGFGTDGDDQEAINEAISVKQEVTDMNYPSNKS
The experiment in a line: Mass spectrometry based SIRT1 deacetylation assay (activation). In kind it is biochemical. Particulars: 10 nM SIRT1, 0.5 μM peptide substrate, 120 μM βNAD+, 25 min at 25° C. The method in brief:
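Recombinant N-His-tagged SIRT1 (E. coli BL21(DE3)), 10 nM, incubated 25 min at 25 °C with 0.5 μM biotin/5TMR-labelled acetyl-p53-derived 20-mer peptide and 120 μM βNAD+ in Tris-acetate pH 8 buffer with DTT and BSA. Formic acid stop; MS quantifies acetylated vs deacetylated peptide. EC1.5 = concentration giving 150% activation versus DMSO.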
Regarding `O=C(Nc1cccnn1)c1cccc2ccc(-c3cccnc3)nc12` [Compound 263], the “% Fold Act. (percent maximum fold activation)” value is “A (Fold activation >200%)” and the “EC1.5 (concentration of test compound that results in 150% activation of SIRT1)” value is “A (EC1.5<1.0 uM)”. The matching figures for `O=C(Nc1cccc(OCC(O)CO)c1)c1cccc2ccc(-c3cccc(OC(F)(F)F)c3)nc12` (centres unmarked) [Compound 152]: “A (Fold activation >200%)” and “A (EC1.5<1.0 uM)”. As to `O=C(Nc1cccnc1)c1cccc2ccc(-c3ccnc(C(F)F)c3)nc12` [Compound 305], the “% Fold Act. (percent maximum fold activation)” value was “A (Fold activation >200%)” and the “EC1.5 (concentration of test compound that results in 150% activation of SIRT1)” value is given as “A (EC1.5<1.0 uM)”. Consider `O=C(Nc1ccccn1)c1cccc2ncc(-c3ccccc3)nc12` [Compound 118], for which the “% Fold Act. (percent maximum fold activation)” value is “B (Fold Activation <200%)” and the “EC1.5 (concentration of test compound that results in 150% activation of SIRT1)” value is on record as “B (EC1.5 1-25 uM)”. The matching figures for `O=C(Nc1ncc(CN2CCCC2)s1)c1cccc2ccc(-c3cccc(C(F)(F)F)c3)nc12` [Compound 219]: “A (Fold activation >200%)” and “A (EC1.5<1.0 uM)”.

Turning to `O=C(Nc1ccc(Cl)cn1)c1cccc2ccc(-c3cccc(N4CCOCC4)c3)nc12` [Compound 278], the “% Fold Act. (percent maximum fold activation)” value is recorded as “A (Fold activation >200%)” and the “EC1.5 (concentration of test compound that results in 150% activation of SIRT1)” value is “A (EC1.5<1.0 uM)”. For the compound `O=C(Nc1cccc2ccc(-c3cc(F)cc(C(F)(F)F)c3)nc12)c1ccccn1` [Compound 159], the “EC1.5 (concentration of test compound that results in 150% activation of SIRT1)” value is given as “C (EC1.5>25 uM)”. Take `O=C(Nc1ccc(F)cn1)c1cccc2ccc(-c3cccnc3)nc12` [Compound 265]: the “EC1.5 (concentration of test compound that results in 150% activation of SIRT1)” value is listed as “C (EC1.5>25 uM)”. As for `O=C(Nc1ncccn1)c1cccc2ccc(-c3cccc(C(F)(F)F)c3)nc12` [Compound 48], the “% Fold Act. (percent maximum fold activation)” value is listed as “A (Fold activation >200%)” and the “EC1.5 (concentration of test compound that results in 150% activation of SIRT1)” value is “A (EC1.5<1.0 uM)”.

As to `O=C(Nc1cccc(CN2CCCC2)n1)c1cccc2ccc(-c3cccc(C(F)F)c3)nc12` [Compound 288], the “% Fold Act. (percent maximum fold activation)” value is “A (Fold activation >200%)” and the “EC1.5 (concentration of test compound that results in 150% activation of SIRT1)” value was “A (EC1.5<1.0 uM)”. The matching figures for `O=C(Nc1cccnc1)c1cccc2cnc(-c3cccc(N4CCOCC4)c3)nc12` [Compound 314]: “B (Fold Activation <200%)” and “A (EC1.5<1.0 uM)”. Take `O=C(Nc1cnccn1)c1cccc2ccc(-c3ccccc3)nc12` [Compound 15]: the “% Fold Act. (percent maximum fold activation)” value is reported as “B (Fold Activation <200%)” and the “EC1.5 (concentration of test compound that results in 150% activation of SIRT1)” value is listed as “A (EC1.5<1.0 uM)”. For the compound `O=C(Nc1cccc(CN2CCOCC2)n1)c1cccc2ccc(-c3ccnc(C(F)F)c3)nc12` [Compound 306], the “% Fold Act. (percent maximum fold activation)” value is reported as “A (Fold activation >200%)” and the “EC1.5 (concentration of test compound that results in 150% activation of SIRT1)” value is listed as “A (EC1.5<1.0 uM)”.

On to `O=C(NCc1cccnc1)c1cccc2ccc(-c3cccc(C(F)(F)F)c3)nc12` [Compound 36], for which the “% Fold Act. (percent maximum fold activation)” value is “A (Fold activation >200%)” and the “EC1.5 (concentration of test compound that results in 150% activation of SIRT1)” value was “C (EC1.5>25 uM)”.

As for `O=C(Nc1cccc2ccc(-c3cccc(C(F)(F)F)c3)nc12)c1cccc(OC[C@@H](O)CO)c1` [Compound 187], the “% Fold Act. (percent maximum fold activation)” value is given as “A (Fold activation >200%)” and the “EC1.5 (concentration of test compound that results in 150% activation of SIRT1)” value is reported as “A (EC1.5<1.0 uM)”.

As for `O=C(Nc1cccc2ccc(-c3cccc(C(F)(F)F)c3)nc12)c1cccc(OC[C@@H](O)CO)n1` [Compound 203], the “% Fold Act. (percent maximum fold activation)” value was “A (Fold activation >200%)” and the “EC1.5 (concentration of test compound that results in 150% activation of SIRT1)” value is on record as “A (EC1.5<1.0 uM)”.

Consider `O=C(Nc1ccc(CN2CCOCC2)nc1)c1cccc2ccc(-c3cccc(C(F)F)c3)nc12` [Compound 289], for which the “% Fold Act. (percent maximum fold activation)” value is recorded as “A (Fold activation >200%)” and the “EC1.5 (concentration of test compound that results in 150% activation of SIRT1)” value was “A (EC1.5<1.0 uM)”.

For `O=C(Nc1nccs1)c1cccc2ncc(-c3ccccc3)nc12` [Compound 116], the “EC1.5 (concentration of test compound that results in 150% activation of SIRT1)” value was “C (EC1.5>25 uM)”. `Cc1csc(NC(=O)c2cccc3cnc(-c4cccc(N5CCOCC5)c4)nc23)n1` [Compound 313]: the “% Fold Act. (percent maximum fold activation)” value was “A (Fold activation >200%)” and the “EC1.5 (concentration of test compound that results in 150% activation of SIRT1)” value is “A (EC1.5<1.0 uM)”. On to `O=C(Nc1nccs1)c1cccc2cnc(-c3cccc(N4CCOCC4)c3)nc12` [Compound 299], for which the “% Fold Act. (percent maximum fold activation)” value is reported as “B (Fold Activation <200%)” and the “EC1.5 (concentration of test compound that results in 150% activation of SIRT1)” value is given as “B (EC1.5 1-25 uM)”. With `Fc1ccc(C(F)(F)F)cc1-c1ccc2cccc(NCc3cccnc3)c2n1` [Compound 167], the “EC1.5 (concentration of test compound that results in 150% activation of SIRT1)” value is “C (EC1.5>25 uM)”. Consider `O=C(Nc1ncc(CN2CCCC2)s1)c1cccc2ccc(-c3cccc(C(F)F)c3)nc12` [Compound 262], for which the “% Fold Act. (percent maximum fold activation)” value is given as “A (Fold activation >200%)” and the “EC1.5 (concentration of test compound that results in 150% activation of SIRT1)” value is “B (EC1.5 1-25 uM)”.

Regarding `CN(C)Cc1cccc(-c2ccc3cccc(NC(=O)c4cscn4)c3n2)c1` [Compound 122], the “% Fold Act. (percent maximum fold activation)” value was “A (Fold activation >200%)” and the “EC1.5 (concentration of test compound that results in 150% activation of SIRT1)” value is listed as “A (EC1.5<1.0 uM)”. For the compound `O=C(Nc1cccnc1)c1cccc2cnc(-c3cccnc3)nc12` [Compound 297], the “EC1.5 (concentration of test compound that results in 150% activation of SIRT1)” value is on record as “C (EC1.5>25 uM)”. Take `O=C(Nc1cccc2ccc(-c3cccc(OC(F)(F)F)c3)nc12)c1cnc2ccccc2n1` [Compound 23]: the “EC1.5 (concentration of test compound that results in 150% activation of SIRT1)” value is “C (EC1.5>25 uM)”. Still for that read-out and setting: under `O=C(Nc1nccs1)c1cc(F)cc2ccc(-c3cccc(C(F)(F)F)c3)nc12` [Compound 62] stands “C (EC1.5>25 uM)”. As to `O=C(Nc1cccc2ccc(-c3cccnc3)nc12)c1cnccn1` [Compound 142], the “% Fold Act. (percent maximum fold activation)” value is given as “B (Fold Activation <200%)” and the “EC1.5 (concentration of test compound that results in 150% activation of SIRT1)” value is on record as “A (EC1.5<1.0 uM)”. The matching figures for `O=C(Nc1cccnc1)c1cccc2ccc(-c3cccc(C(F)(F)F)c3)nc12` [Compound 31]: “A (Fold activation >200%)” and “A (EC1.5<1.0 uM)”. On to `O=C(Nc1nccs1)c1cccc2cnc(-c3cccc(C(F)(F)F)c3)nc12` [Compound 270], for which the “EC1.5 (concentration of test compound that results in 150% activation of SIRT1)” value is “C (EC1.5>25 uM)”.

Turning to `O=C(Nc1cccc2ccc(-c3ccncc3)nc12)c1cnccn1` [Compound 155], the “EC1.5 (concentration of test compound that results in 150% activation of SIRT1)” value is reported as “C (EC1.5>25 uM)”. Take `O=C(Nc1ncc(CN2CCOCC2)s1)c1cccc2ccc(-c3cccnc3)nc12` [Compound 191]: the “% Fold Act. (percent maximum fold activation)” value is “A (Fold activation >200%)” and the “EC1.5 (concentration of test compound that results in 150% activation of SIRT1)” value is on record as “B (EC1.5 1-25 uM)”.
